{"source": "paper PMC4850106", "about": "(Journal of medicinal chemistry, 2016)", "key": {"human NOP": {"target": "human NOP (Homo sapiens, UniProt P41146)", "sequence (P41146 whole entry)": "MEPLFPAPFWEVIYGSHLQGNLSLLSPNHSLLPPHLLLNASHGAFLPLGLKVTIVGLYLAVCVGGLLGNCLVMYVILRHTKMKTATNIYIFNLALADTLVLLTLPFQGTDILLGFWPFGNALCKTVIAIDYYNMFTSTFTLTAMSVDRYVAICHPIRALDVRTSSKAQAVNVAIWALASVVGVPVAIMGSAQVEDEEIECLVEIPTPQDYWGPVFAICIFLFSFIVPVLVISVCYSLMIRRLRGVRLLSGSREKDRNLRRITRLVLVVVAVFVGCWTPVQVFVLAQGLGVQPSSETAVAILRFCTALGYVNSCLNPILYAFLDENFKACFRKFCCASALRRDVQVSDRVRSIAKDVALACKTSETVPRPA", "settings": "read-out: Ki for the human NOP; cited from earlier work"}, "BBB-PAMPA assay": {"test": "BBB-PAMPA assay", "type": "in vitro ADME, porcine", "settings": "500 µM in donor, 4 h"}, "[1]": {"test_system": "brain-like endothelial cells cocultured with pericytes", "test": "In vitro human BBB cell-based model", "type": "in vitro ADME", "settings": "cell-based BBB model, 200 µM, 2 h"}, "[2]": {"test": "In vitro human BBB cell-based model", "type": "in vitro ADME", "settings": "human"}, "mice (C57BL6)": {"test_system": "mice (C57BL6)", "settings": "acute pain, increased dosing ref 73; cited from earlier work"}, "Sprague–Dawley rats": {"test_system": "Sprague–Dawley rats", "test": "Respiratory effects by whole body plethysmography in rats", "type": "in vivo", "settings": "iv, 13a 0.5 mg/kg, morphine 5 mg/kg"}, "neuropathic mice": {"test_system": "neuropathic mice", "settings": "neuropathic conditions ref 73; cited from earlier work"}}, "note": "pKi: −log10 of the molar value."}
{"molecule": "Ac-Arg-Tyr-Tyr-Arg-Trp-Arg-NH2 (Ac-RYYRWR-NH2)", "values": [{"measurement": "pKi", "setting": "human NOP", "result": 10.00}]}
{"molecule": "CC[C@H](C)[C@H](NC(=O)[C@H](CCCN=C(N)N)NC(=O)[C@H](Cc1ccc(O)cc1)NC(=O)[C@H](Cc1ccc(O)cc1)NC(=O)[C@H](CCCN=C(N)N)NC(C)=O)C(=O)N[C@@H](CCCCN)C(N)=O", "note": "[compound 8, Ac-Arg-Tyr-Tyr-Arg-Ile-Lys-NH2]", "values": [{"measurement": "transport (%)", "setting": "BBB-PAMPA assay", "result": 0.15, "unit": "%"}, {"measurement": "mass balance (%)", "setting": "[1]", "result": 95, "unit": "%"}, {"measurement": "transport (%)", "setting": "[1]", "result": 14, "unit": "%"}, {"measurement": "Papp A→B at 2 h, 200 µM", "setting": "[2]", "result": 8.4, "unit": "×10⁻⁶ cm/s"}]}
{"molecule": "CN1CC[C@]23c4c5ccc(O)c4O[C@H]2[C@@H](O)C=C[C@H]3[C@H]1C5", "note": "[morphine]", "values": [{"measurement": "%MPE in tail-flick test upon increased dosing", "setting": "mice (C57BL6)", "result": 100, "unit": "%MPE"}, {"measurement": "inspiratory time", "setting": "Sprague–Dawley rats", "result": "significant increase in inspiratory time"}, {"measurement": "respiratory frequency", "setting": "Sprague–Dawley rats", "result": "decrease in respiratory frequency"}, {"measurement": "respiratory depression (ventilation minute)", "setting": "Sprague–Dawley rats; vs saline, AUC", "result": "deleterious effect"}, {"measurement": "sustained %MPE no matter how high the dose", "setting": "neuropathic mice", "result": "about 50 %MPE"}]}
